Reference: US20240343740A1, “MACROCYCLIC GLUCAGON-LIKE PEPTIDE 1 RECEPTOR AGONISTS” (Eli Lilly and Company, priority 2021, published 2024)
Read-outs that look alike come from different tables or passages of the source.

What was measured:
[1] = cc_pd bond, 14-membered ring, 110.0 °C, 15.0 h
[2] = cc_pd bond
human GLP-1R [3] = molecular target: T1, human GLP-1R (Homo sapiens, UniProt P43220); assay: Human GLP-1 Receptor HEK293 cell cAMP assay, 104 fmol/mg GLP-1R expression density; type: cell-based; parameters: expressed in transfected cells; host or cells: HEK293 clonal cell line; details: HEK293 cell line with 104 fmol/mg expression density of GLP-1R; for EC50: geometric mean, read-out: EC50 nM (SEM, n), intracellular cAMP response, relative EC50; for Emax: percent of maximal response to GLP-1(7-36)NH2, arithmetic mean, read-out: Emax % (SEM, n), intracellular cAMP response
How it was run: (§1)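 HEK293 clonal lines expressing human GLP-1R, 20-point compound curves, 30 min at 37° C in DMEM with 0.1% casein, 250 μM IBMX, 0.5% DMSO. cAMP by HTRF, converted via standard curve to % of maximal human GLP-1(7-36)NH2 response; relative EC50 and Emax from four-parameter logistic fit.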
Target sequence in this assay (P43220 24-463): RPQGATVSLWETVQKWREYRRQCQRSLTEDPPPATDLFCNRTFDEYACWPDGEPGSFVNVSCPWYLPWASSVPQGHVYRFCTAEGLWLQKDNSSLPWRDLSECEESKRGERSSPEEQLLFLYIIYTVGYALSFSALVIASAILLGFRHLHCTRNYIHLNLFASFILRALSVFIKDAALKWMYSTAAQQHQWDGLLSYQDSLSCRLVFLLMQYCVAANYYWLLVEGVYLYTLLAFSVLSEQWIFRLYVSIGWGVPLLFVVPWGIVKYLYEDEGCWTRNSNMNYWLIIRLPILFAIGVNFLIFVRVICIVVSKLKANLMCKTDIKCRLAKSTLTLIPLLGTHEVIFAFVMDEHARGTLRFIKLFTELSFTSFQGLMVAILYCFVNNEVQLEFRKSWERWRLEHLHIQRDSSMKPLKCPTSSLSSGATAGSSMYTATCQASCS

human GLP-1R [4] = molecular target: T1, human GLP-1R; assay: GLP-1R CHO cell β-arrestin recruitment assay (PathHunter); type: cell-based; parameters: host or cells: CHO-K1; details: for EC50: CHO-K1 cells expressing Pro-Link-tagged Human GLP-1R and enzyme-acceptor-tagged β-arrestin-2, read-out: EC50 nM (SEM, n), hGLP1R induced β-Arrestin-2 recruitment relative EC50; for Emax: CHO-K1 cells, % stimulation with DMSO and GLP-1(7-36) as minimum and maximum controls, read-out: Emax % (SEM, n), hGLP1R induced β-Arrestin-2 recruitment
Procedure: GLP-1R CHO Cell β-Arrestin Recruitment Assay
Activated G-protein coupled receptors can interact with the β-arrestin family of signaling proteins. The potency of compounds for GLP-1R induced arrestin recruitment is determined using the PathHunter Enzyme Fragment Complementation approach substantially as described (von Degenfeld et al., FASEB J., 2007 (14):3819-26 and Hamdouchi et al., J. Med Chem., 2016 59(24):10891-10916). CHO-K1 cells expressing Pro-Link-tagged Human GLP-1R and enzyme-acceptor-tagged β-arrestin-2 may be obtained from DiscoveRx and prepared as assay-ready frozen cells. Test compounds are solubilized in DMSO and serial dilutions are performed using the Echo acoustic dispenser (LabCyte). Assay media is the PathHunter Cell Assay Buffer (DiscoveRx) containing 0.1% w/v hydrolyzed Casein (Sigma). 100 nL of test compound solution is dispensed into 10 μL of assay media in a 384 well plate and then 10 μL of cells in assay media are added to give 5000 cells per well. Plates are incubated for 90 min in a 37° C./5% CO2 incubator and 10 μL of PathHunter detection reagent is added (DiscoveRx) and plates are incubated at RT for 60 min. Luminescence signal is measured. Compound concentration-response curves fit to a four-parameter logistic model to calculate potency as an EC50 and percent top (Emax). Data normalization to % stimulation is performed using DMSO and GLP-1(7-36) as minimum and maximum controls (Campbell et al, Assay Guidance Manual 2017).
Target sequence in this assay (P43220 24-463): as above
Target sequence in this assay (P32121 whole entry partner): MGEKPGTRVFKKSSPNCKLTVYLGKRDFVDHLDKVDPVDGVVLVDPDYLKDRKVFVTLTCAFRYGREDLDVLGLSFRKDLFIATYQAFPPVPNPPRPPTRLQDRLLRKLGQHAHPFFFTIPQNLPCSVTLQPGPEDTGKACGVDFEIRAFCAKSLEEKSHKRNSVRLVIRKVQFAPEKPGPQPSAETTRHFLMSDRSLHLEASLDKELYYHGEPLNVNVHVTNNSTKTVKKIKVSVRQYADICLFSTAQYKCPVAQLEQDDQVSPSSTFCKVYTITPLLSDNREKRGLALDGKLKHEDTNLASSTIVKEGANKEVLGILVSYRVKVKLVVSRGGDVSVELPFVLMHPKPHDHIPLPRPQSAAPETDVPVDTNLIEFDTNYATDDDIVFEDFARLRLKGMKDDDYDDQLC

human GLP-1R [5] = molecular target: T1, human GLP-1R; assay: Human GLP-1 Receptor HEK293 cell cAMP assay, 581 fmol/mg GLP-1R expression density; type: cell-based; parameters: expressed in transfected cells; host or cells: HEK293 clonal cell line; details: HEK293 cell line with 581 fmol/mg expression density of GLP-1R; for EC50: geometric mean, read-out: EC50 nM (SEM, n), intracellular cAMP response, relative EC50; for Emax: percent of maximal response to GLP-1(7-36)NH2, arithmetic mean, read-out: Emax % (SEM, n), intracellular cAMP response
How it was run: as §1
Target sequence in this assay (P43220 24-463): as the sequence (P43220 24-463) above

## CCOC(=O)Cc1cc(F)c2cc1COCCc1cc(C#N)ccc1COc1ccc(F)c-2n1
[1]; from CCOC(=O)Cc1cc(F)c(Br)cc1COCCc1cc(C#N)ccc1COc1ccc(F)c(Br)n1, XPhos Pd G3/Me3SnSnMe3/CsF, 1,4-dioxane, 11.4 mM
  ring closure, yield after HPLC: 29%

## CCOC(=O)Cc1cc(F)c2cc1OCCCc1cc(C#N)ccc1COc1cccc-2n1
[2]; from CCOC(=O)Cc1cc(F)c(Br)cc1OCCCc1cc(C#N)ccc1COc1cccc(Br)n1, 14-membered ring, Me6Sn2/Pd(PPh3)4, 1,4-dioxane, 23.0 mM, 90.0 °C, 60.0 h
  ring closure, isolated yield: 47%

## CCOC(=O)Cc1cc(F)c2cc1OCCCc1cc(C#N)cnc1COc1cccc-2n1
[2]; from CCOC(=O)Cc1cc(F)c(Br)cc1OCCCc1cc(C#N)cnc1COc1cccc(Br)n1, 14-membered ring, Me6Sn2/CsF/XPhos Pd G2, 1,4-dioxane, 22.0 mM, 100.0 °C, 18.0 h
  ring closure, isolated yield: 49%

## CCOC(=O)Cc1cc(F)c2cc1OCCOc1cc(C#N)ccc1COc1cccc-2n1
[2]; from CCOC(=O)Cc1cc(F)c(Br)cc1OCCOc1cc(C#N)ccc1COc1cccc(Br)n1, 14-membered ring, B2pin2/KOAc/Pd(dppf)Cl2, then PdCl2/XPhos/K3PO4, THF/water, 8.9 mM, 45.0 °C, 16.0 h, 2 steps
  ring closure, isolated yield: 32%

## CCOC(=O)Cc1ccc2cc1COCC(F)(F)c1cc(C#N)ccc1COc1cccc-2n1
[2]; from CCOC(=O)Cc1ccc(Br)cc1COCC(F)(F)c1cc(C#N)ccc1COc1cccc(Br)n1, 14-membered ring, B2pin2/KOAc/Pd(dppf)Cl2, then XPhos Pd G2/K3PO4, 1,4-dioxane/water, 55.0 mM, 60.0 °C, 2.0 h, 2 steps
  ring closure, isolated yield: 21%

## COC(=O)Cc1ccc2cc1COCCc1cc(C#N)ccc1COc1ccnc-2n1
[2]; from COC(=O)Cc1ccc(B2OC(C)(C)C(C)(C)O2)cc1COCCc1cc(C#N)ccc1COc1ccnc(Cl)n1, 14-membered ring, XPhos Pd G2/K3PO4, THF/water, 36.0 mM, 50.0 °C, 6.0 h
  ring closure, isolated yield: 22%

## COC(=O)Cc1ccc2cc1COCCc1cc(ccc1C#N)COc1cccc-2n1
[2]; from COC(=O)Cc1ccc(B2OC(C)(C)C(C)(C)O2)cc1COCCc1cc(COc2cccc(Cl)n2)ccc1C#N, 15-membered ring, XPhos Pd(crotyl)Cl/K3PO4, THF/water, 33.0 mM, 50.0 °C, 0.83 h
  ring closure, isolated yield: 61%

## COC(=O)Cc1ccc2cc1OCCCc1cc(C#N)ccc1COc1cccc-2n1
[2]; from COC(=O)Cc1ccc(B2OC(C)(C)C(C)(C)O2)cc1OCCCc1cc(C#N)ccc1COc1cccc(Br)n1, 14-membered ring, XPhos Pd G2/K3PO4, THF/water, 57.0 mM, 45.0 °C, 2.25 h
  ring closure, isolated yield: 82%

## COC(=O)Cc1ccc2cc1OCCCc1cc(Cl)ccc1COc1cccc-2n1
[2]; from COC(=O)Cc1ccc(B2OC(C)(C)C(C)(C)O2)cc1OCCCc1cc(Cl)ccc1COc1cccc(Br)n1, 14-membered ring, XPhos Pd G2/K3PO4, THF/water, 9.2 mM, 40.0 °C, 15.0 h
  ring closure, isolated yield: 74%

## FC(F)(F)c1cc2c(cn1)COc1cccc(n1)-c1ccc(Cl)c(c1)COCC2
[1]; from FC(F)(F)c1cc(CCOCc2cc(Br)ccc2Cl)c(COc2cccc(Br)n2)cn1, XPhos Pd G3
  ring closure, yield after HPLC: 14%

## N#Cc1ccc2c(c1)CCCOc1cc(c(F)cc1Cc1nc3ccc(C(=O)O)cc3n1C[C@@H]1CCO1)-c1cccc(n1)OC2 [Example 1, (S)-2-((5^4-Cyano-1^6-fluoro-3,9-dioxa-2(2,6)-pyridina-1(1,3),5(1,2)-dibenzenacyclononaphane-1^4-yl)methyl)-1-(oxetan-2-ylmethyl)-1H-benzo[d]imidazole-6-carboxylic acid]
Human GLP-1R [3]
  EC50: 59.7 nM
  Emax: 71%
Human GLP-1R [4]
  EC50: 213 nM
  Emax: 42.9%
Human GLP-1R [5]
  EC50: 19.8 nM
  Emax: 95%

## N#Cc1ccc2c(c1)CCCOc1cc(c(F)cc1Cc1nc3c(F)cc(C(=O)O)cc3n1C[C@@H]1CCO1)-c1cccc(n1)OC2 [Example 2, (S)-2-((5^4-Cyano-1^6-fluoro-3,9-dioxa-2(2,6)-pyridina-1(1,3),5(1,2)-dibenzenacyclononaphane-1^4-yl)methyl)-4-fluoro-1-(oxetan-2-ylmethyl)-1H-benzo[d]imidazole-6-carboxylic acid]
Human GLP-1R [3]
  EC50: 17.5 nM
  Emax: 72%
Human GLP-1R [4]
  EC50: 133 nM
  Emax: 52.7%
Human GLP-1R [5]
  EC50: 8.05 nM
  Emax: 98%

## O=C(O)c1ccc2nc(Cc3ccc4cc3OCCCc3cc(Cl)ccc3COc3cccc-4n3)n(C[C@@H]3CCO3)c2c1 [Example 3, (S)-2-((5^4-Chloro-3,9-dioxa-2(2,6)-pyridina-1(1,3),5(1,2)-dibenzenacyclononaphane-1^4-yl)methyl)-1-(oxetan-2-ylmethyl)-1H-benzo[d]imidazole-6-carboxylic acid]
Human GLP-1R [3]
  EC50: 132 nM
  Emax: 84%
Human GLP-1R [4]
  EC50: 320 nM
  Emax: 34%
Human GLP-1R [5]
  EC50: 44.1 nM
  Emax: 102%

## COc1cc(-c2nnn[nH]2)cc2c1nc(Cc1ccc3cc1OCCCc1cc(C#N)ccc1COc1cccc-3n1)n2C[C@@H]1CCO1 [Example 12, (S)-1^4-((4-Methoxy-1-(oxetan-2-ylmethyl)-6-(1H-tetrazol-5-yl)-1H-benzo[d]imidazol-2-yl)methyl)-3,9-dioxa-2(2,6)-pyridina-1(1,3),5(1,2)-dibenzenacyclononaphane-5^4-carbonitrile]
Human GLP-1R [3]
  EC50: 66.3 nM
  Emax: 46.4%
Human GLP-1R [4]
  EC50: > 49500 nM
  Emax: 9.47%
Human GLP-1R [5]
  EC50: 20.2 nM
  Emax: 81.8%
